These results are taken from patent publication US10538555B2, “Macrocyclic inhibitors of the PD-1/PD-L1 and CD80(B7-1)/PD-L1 protein/protein interactions” (BRISTOL-MYERS SQUIBB COMPANY, priority 2014, dated 2020).

Where a SMILES comes first, the peptide text is derived from it. Bridges are numbered along the chain shown (N, C = ends). [ ]: non-standard residue; d: D form. ξ: configuration not given here. Trp(1-CH2COOH) = N[C@@H](Cc1cn(CC(=O)O)c2ccccc12)C(=O)O; Bta = N[C@@H](Cc1csc2ccccc12)C(=O)O; Hyp = O=C(O)[C@@H]1C[C@@H](O)CN1; NMeNle = CCCC[C@H](NC)C(=O)O; Pip = O=C(O)[C@@H]1CCCCN1; NMeA = CN[C@@H](C)C(=O)O; Dab = NCC[C@H](N)C(=O)O; Dap = NC[C@H](N)C(=O)O; ξC = NC(CS)C(=O)O

The target of the assay is T1, Human PD-L1/PD-1 (Homo sapiens, UniProt Q9NZQ7).
T1 construct: TVMV protease cleavage site (C); made in house; host or cells: HEK293T cells
T1 sequence (Q9NZQ7 with tags, fused parts or gaps): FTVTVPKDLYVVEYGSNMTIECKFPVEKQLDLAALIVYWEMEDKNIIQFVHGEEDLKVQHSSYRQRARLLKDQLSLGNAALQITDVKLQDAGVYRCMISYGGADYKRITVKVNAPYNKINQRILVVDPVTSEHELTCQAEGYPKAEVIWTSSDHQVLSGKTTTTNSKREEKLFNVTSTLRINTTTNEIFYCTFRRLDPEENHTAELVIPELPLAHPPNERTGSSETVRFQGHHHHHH
Description: HTRF Human PD-L1/PD-1 binding assay (PD-1-Ig/PD-L1-His). The conditions noted are these: PD-L1-His 10 nM, PD-1-Ig 20 nM; class symbol; read-out: HTRF Human PD-L1/PD-1 Binding Assay IC50 Range. The method, boiled down: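 HTRF competition using HEK293T-expressed human PD-1(25-167)-Ig at 20 nM and PD-L1(18-239)-His at 10 nM, compound incubated first with PD-L1 for 15 min, then with PD-1 for 15 min. Signal read as 665/620 nm ratio 30 min after adding Eu anti-Ig and APC anti-His antibodies.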
On the technique in general: In TR-FRET formats the signal depends on donor and acceptor labels being close together.

As for `CCCC[C@H]1C(=O)N(C)[C@@H](CCCC)C(=O)N[C@@H](CO)C(=O)N[C@H](C(=O)NCC(N)=O)CSCC(=O)N[C@@H](Cc2ccc(O)cc2)C(=O)N(C)[C@@H](C)C(=O)N[C@@H](CC(=O)O)C(=O)N2CCC[C@H]2C(=O)N[C@@H](CO)C(=O)N[C@@H](CC(C)C)C(=O)N2C[C@H](O)C[C@H]2C(=O)N[C@@H](Cc2c[nH]c3ccccc23)C(=O)N[C@@H](CO)C(=O)N[C@@H](Cc2cn(CC(=O)O)c3ccccc23)C(=O)N1C` [Example 6274] ({CH2CO}-Y[NMeA]DPSL[Hyp]WS[Trp(1-CH2COOH)][NMeNle][NMeNle]SCG-NH2; thioether N-14), the IC50 lay within 1 to 9.9 nM.

On to `CCCC[C@H]1C(=O)N(C)[C@@H](CCCC)C(=O)N[C@@H](CCCNC(=N)N)C(=O)N[C@H](C(=O)NCC(N)=O)CSCC(=O)N[C@@H](Cc2ccc(O)cc2)C(=O)N(C)[C@@H](C)C(=O)N[C@@H](CO)C(=O)N2CCC[C@H]2C(=O)N[C@@H](Cc2cnc[nH]2)C(=O)N[C@@H](CCC(N)=O)C(=O)N2C[C@H](O)C[C@H]2C(=O)N[C@@H](Cc2c[nH]c3ccccc23)C(=O)N[C@@H](CO)C(=O)N[C@@H](Cc2c[nH]c3ccccc23)C(=O)N1C` [Example 5178] ({CH2CO}-Y[NMeA]SPHQ[Hyp]WSW[NMeNle][NMeNle]RCG-NH2; thioether N-14), for which the IC50 lay in the range of 1 to 9.9 nM.

As for `CCCC[C@H]1C(=O)N(C)[C@@H](CCCC)C(=O)N[C@@H](C)C(=O)N[C@H](C(=O)NCC(N)=O)CSCC(=O)N[C@@H](Cc2ccc(O)cc2)C(=O)N2CCCC[C@H]2C(=O)N[C@@H](CC(=O)O)C(=O)N2CCC[C@H]2C(=O)N[C@@H](CN)C(=O)N[C@@H](CCC(=O)O)C(=O)N2C[C@H](O)C[C@H]2C(=O)N[C@@H](Cc2c[nH]c3ccccc23)C(=O)N[C@@H](CO)C(=O)N[C@@H](Cc2csc3ccccc23)C(=O)N1C` [Example 1510] ({CH2CO}-Y[Pip]DP[Dap]E[Hyp]WS[Bta][NMeNle][NMeNle]ACG-NH2; thioether N-14), the IC50 lay within 1 to 9.9 nM.

Take `CCCC[C@H]1C(=O)N(C)[C@@H](CCCC)C(=O)N[C@@H](CC(C)C)C(=O)N[C@H](C(N)=O)CSCC(=O)N[C@@H](Cc2ccc(O)cc2)C(=O)N(C)[C@@H](C)C(=O)N[C@@H](CC(N)=O)C(=O)N2CCC[C@H]2C(=O)N[C@@H](CN)C(=O)N[C@@H](CC(C)C)C(=O)N2C[C@H](O)C[C@H]2C(=O)N[C@@H](Cc2c[nH]c3ccccc23)C(=O)N[C@@H](CO)C(=O)N[C@@H](Cc2cn(CC(=O)O)c3ccccc23)C(=O)N1C` [Example 6180] ({CH2CO}-Y[NMeA]NP[Dap]L[Hyp]WS[Trp(1-CH2COOH)][NMeNle][NMeNle]LC-NH2; thioether N-14): the IC50 was 1 to 9.9 nM.

With `CCCC[C@H]1C(=O)N(C)[C@@H](CCCC)C(=O)N[C@@H](CC(C)C)C(=O)N[C@H](C(=O)NCC(N)=O)CSCC(=O)N[C@@H](Cc2ccc(O)cc2)C(=O)N2CCCC[C@H]2C(=O)N[C@@H](CC(N)=O)C(=O)N2CCC[C@H]2C(=O)N[C@@H](CN)C(=O)N[C@@H](CCC(=O)O)C(=O)N2C[C@H](O)C[C@H]2C(=O)N[C@@H](Cc2c[nH]c3ccccc23)C(=O)N[C@@H](CCN)C(=O)N[C@@H](Cc2cn(CC(=O)O)c3ccccc23)C(=O)N1C` [Example 1299] ({CH2CO}-Y[Pip]NP[Dap]E[Hyp]W[Dab][Trp(1-CH2COOH)][NMeNle][NMeNle]LCG-NH2; thioether N-14), the IC50 was in the range of 1 to 9.9 nM.

As for `CCCC[C@H]1C(=O)N(C)[C@@H](C)C(=O)N[C@@H](CCCNC(=N)N)C(=O)NC(C(=O)N[C@@H](CO)C(N)=O)CSCC(=O)N[C@@H](Cc2ccc(O)cc2)C(=O)N(C)[C@@H](C)C(=O)N[C@@H](CC(N)=O)C(=O)N2CCC[C@H]2C(=O)N[C@@H](CO)C(=O)N[C@H](CC(C)C)C(=O)N2CCC[C@H]2C(=O)N[C@@H](Cc2c[nH]c3ccccc23)C(=O)N[C@@H](CO)C(=O)N[C@@H](Cc2csc3ccccc23)C(=O)N1C` (stereo partly drawn) [Example 9122] ({CH2CO}-Y[NMeA]NPS[dL]PWS[Bta][NMeNle][NMeA]R[ξC]S-NH2; thioether N-14), the IC50 was in the range of 10 to 99.9 nM.
